US6365610B1, “Ozonide compounds with inhibitory activity for urokinase production and angiogenesis” (Taiho Pharmaceutical Company Ltd., priority 1998, dated 2002)

How the values were obtained:
urokinase = assay: Urokinase production inhibition test (HT-1080 culture supernatant urokinase activity); type: cell-based, Human; conditions: HT-1080 cells
Procedure: This test was conducted substantially according to the method described in Biochem. Biophys. Res. Commun., 142(1), 147-54(1987) as will be described in detail below.
Human fibrosarcoma cells HT-1080 were purchased from American Type Culture Collection (product of Rockville). HT-1080 cells were cultured at 37° C. in a 5% CO2 incubator in RPMI-1640 medium (product of Nissui Seiyaku Co., Ltd.) containing 10% (v/v) of […] bovine fetal serum (product of ATLANTA Biological). The cells were suspended in 0.2% trypsin 2 mM EDTA solution for use in the experiment.
The suspension of HT-1080 cells as adjusted to 1×10^5 cells/ml was placed onto a 96-well flat-bottomed incubation plate dividedly in 200 μl quantities (2×10^4 cells/well) and incubated at 37° C. for 4 hours. The supernatant was thereafter removed and replaced with the same amount of serum-free medium [hereinafter referred to as “serum(−)”], followed by incubation for 20 hours. Subsequently, serum(−) was replaced with 199 μl of serum-containing medium [hereinafter referred to as “serum(+)”], and 1 μl of a sample solution containing an active component of the invention and prepared by dissolving the component in dimethyl sulfoxide (DMSO) was added to serum(+) in the incubation plate, followed by further incubation at 37° C. for 24 hours. The resulting supernatant was removed under suction, serum(−) was added in 200 μl quantities, followed by incubation again for 24 hours, and the supernatant of the culture was collected.
To determine the conditions for measuring urokinase activity in the supernatant, the reaction time and the concentration of a synthetic substrate were investigated using recombinant human urokinase (product of CHROMOGENIX AB) and VLKpA (valylleucyllysyl p-nitroamide, product of Sigma Chemical CO.) serving as the […] at a constant concentration (2.8 μg/ml) of plasminogen. When the culture supernatant of HT-1080 cells was checked for urokinase activity preliminarily, the activity was about 0.02 IU/μl. An urokinase solution with activity of 0.02 IU/μl was reacted with the synthetic substrate of varying concentrations.
A 85 μl portion of the culture supernatant and 15 μl of substrate reaction mixture [427 mM Tris-HCl (pH 8.0), 27 mM EDTA (pH 8.0), 1.5 mM VLKpA, 125 μg/ml plasminogen (product of CHROMOGENIX AB] were mixed together in a 96-well incubation plate and reacted at 37° C. for 30 minutes, and the reaction mixture was checked for absorbance at 405 nm using an immunoreader. The urokinase production inhibition ratio was calculated from the following equation.
Inhibition ratio (%)=(1−T/C)×100
wherein T is the average absorbance of a group given the sample, and C is the average absorbance of a control group.

[1] = tested on: fertilized egg chorioallantonic membrane (CAM); assay: Angiogenesis inhibition test, fertilized egg chorioallantonic membrane (CAM) method; type: in vivo, hen; conditions: scored points over all eggs
Procedure: This experiment was conducted substantially according to the fertilized egg chorioallantonic membrane (abbreviated as CAM) method described in ADVANCES IN CANCER RESEARCH, vol. 43, 175-203. The fertilized hen's eggs (Plymouth Rock breed×white leghorn breed) used were purchased from Gotoh Brooder (Gifu Prefecture) and incubated in an incubator (product of Tokyo Rikagaku Kikai Co., Ltd.) at a humidity of 70% and 37° C.
The air chamber of each egg was located by illuminating the egg and the egg shell was injured with a rotary file at two locations, i.e., an upper portion of the air chamber and a side portion of the egg on day 3, taking the day when the incubation was started as day 0. About 3 ml of the albumen was aspirated through the side hole with a syringe for removal, and the air was removed from the upper portion with a dropper. With the side hole sealed with OpSite (product of Smith and Nephew Ltd.), the air chamber upper portion was injured in the form of a 1 cm square, the egg shell and the egg membrane were removed from the square area, and the opening was sealed with OpSite. The seal was removed from the opening on day 5 to form a window, which was sealed with Tegaderm (product of 3M Health Care Ltd.). A disk is made from 20 μl of 1% gelatin with drying, 20 μl of 0.5% aqueous methyl cellulose solution containing an active component of the invention was applied to the disk to form a superposed layer, and the resulting disk was dried in a clean bench. The Tegaderm seal was removed, the disk was placed at rest on the CAM, and the window was sealed again. The shell was removed from an upper portion of the egg on day 7, and 1 ml of 20% Intralipos (product of Green Cross Co., Ltd.) was injected into the egg under the CAM. The CAM was observed under a surgical microscope and photographed at a magnification of ×4 to ×8.
The effect to inhibit angiogenesis was determined substantially according to the method described in Cancer Lett., 48(2), 157-62(1989). More specifically, a vessel-free region, when found over a distance of at least 2 mm around the methyl cellulose layer, was interpreted as indicating angiogenesis inhibitory activity (+), weak inhibitory activity of less than 2 mm as indicating quasi-positive (±), and no vessel-free region within 2 mm as indicating negative (−). At least six fertilized eggs were used for testing. The angiogenesis inhibition ratio was determined by evaluating (+) as 1 point, (±) as 0.5 point and (−) as 0 point, and calculating the ratio of the points each compound scored for all the eggs used.

[2] = tested on: Lewis lung cancer strain (LLC); type: in vivo
Procedure: The test animals used were 7-week-old female C57BL/6 mice (Nippon Charles River) weighing 17 to 20 g. A subcutaneous tumor (1.0×10^5 cells) of Lewis lung cancer strain (LLC) was transplanted in the mice, and a suspension of a test compound in an aqueous solution of 3% ethanol and 5% gum arabic was given on day 3 and thereafter. The test compound used was compound 6, which was intraperitoneally administered at a dose of 15 mg/kg every other day. On the other hand, 100 μl of 3% ethanol-5% gum arabic aqueous solution was intraperitoneally given to a control group. The mice were checked for body weight and the major and minor diameters of the primary tumor every other day, and an estimated tumor volume (V) was determined by calculating (minor diameter)^2×(major diameter)÷2. The tumor growth inhibition ratio (%) was calculated from the estimated tumor volume of day 24 after the transplantation using the following equation.
Tumor growth inhibition ratio (%)=(1−Tv/Cv)×100
wherein Tv is the tumor volume (mm^3) of the group given the test compound, and Cv is the tumor volume (mm^3) of the control group.
The tumor was excised from each mouse, fixed with acetone, and checked for the number of lesions metastasized to the lungs to calculate the lung metastasis inhibition ratio (%) from the following equation.
Lung metastasis inhibition ratio (%)=(1−T/C)×100
wherein T is the number of metastatic nodules in the group given the test compound, and C is the number of metastatic nodules in the control group.

[3] = 15 mg/kg intraperitoneally every other day, LLC-bearing mice

melting point [°C] | SMILES | urokinase inhibition ratio (%) (urokinase; concentration 3.13 μg/ml) | angiogenesis inhibition ratio (%) ([1]; dosage 40 μg/egg) | also measured
171 to 173 | c1ccc(C2c3ccccc3C3(c4ccccc4)OOC2(c2ccccc2)O3)cc1 (stereo not drawn) [Compound 10, 4,5-dihydro-1,4,5-triphenyl-1,4-epoxy-1H-2,3-benzodioxepin] | 94.1 | – | –
139 to 141 | Cc1ccc(C23OOC(c4ccccc4)(O2)C(C)c2ccccc23)cc1 (stereo not drawn) [Compound 2, 4,5-dihydro-5-methyl-4-phenyl-1-p-tolyl-1,4-epoxy-1H-2,3-benzodioxepin] | – | – | urokinase inhibition ratio (%) (urokinase; concentration 12.5 μg/ml): 88.3%
178 to 180 | CC12OOC(c3ccccc3)(O1)c1ccccc1C2c1ccccc1 (stereo not drawn) [Compound 1, 4,5-dihydro-1,5-diphenyl-4-methyl-1,4-epoxy-1H-2,3-benzodioxepin] | 90.5 | 75 | urokinase inhibition ratio (%) (urokinase; concentration 1.56 μg/ml): 90.0%; angiogenesis inhibition ratio (%) ([1]; dosage 10 μg/egg): 67%
155 to 156 | c1ccc(C2c3ccccc3C3OC2(c2ccccc2)ON3c2ccccc2)cc1 (stereo not drawn) [Compound 8, 1,2,4,5-tetrahydro-2,4,5-triphenyl-1,4-epoxy-3,2-benzoxazepin] | – | 56 | urokinase inhibition ratio (%) (urokinase; concentration 25.0 μg/ml): 82.2%; urokinase inhibition ratio (%) (urokinase; concentration 50.0 μg/ml): 93.4%
135 to 136 | COc1ccc(C23OOC(c4ccccc4)(O2)C(C)c2ccccc23)cc1 (stereo not drawn) [Compound 3, 4,5-dihydro-1-p-anisyl-5-methyl-4-phenyl-1,4-epoxy-1H-2,3-benzodioxepin] | 93.8 | 63 | urokinase inhibition ratio (%) (urokinase; concentration 6.25 μg/ml): 94.4%
– | c1ccc(C23OOC(O2)c2cccc4cccc3c24)cc1 (stereo not drawn) [Compound 6, 1-phenyl-1,4-epoxy-1H,4H-naphtho[1,8-de][1,2]dioxepin] | – | 100 | urokinase inhibition ratio (%) (urokinase; concentration 50.0 μg/ml): 90.1%; tumor growth inhibition ratio ([2]; 15 mg/kg intraperitoneally every other day from day 3, estimated tumor volume of day 24, subcutaneous LLC in mice): 59.2%; lung metastasis inhibition ratio ([2]; 15 mg/kg intraperitoneally every other day from day 3, number of metastatic nodules in lungs, LLC in mice): 75.8%; death in the mice [2, 3]: no death; reduction in body weight [2, 3]: little or no reduction in body weight
130 to 132 | CC(C)C1c2ccccc2C2(c3ccccc3)OOC1(c1ccccc1)O2 (stereo not drawn) [Compound 4, 4,5-dihydro-1,4-diphenyl-5-isopropyl-1,4-epoxy-1H-2,3-benzodioxepin] | – | – | –
127 to 128 | CC1c2ccccc2C2(c3ccccc3)OOC1O2 (stereo not drawn) [Compound 9, 4,5-dihydro-5-methyl-1-phenyl-1,4-epoxy-1H-2,3-benzodioxepin] | – | – | –
119 | c1ccc(C23Cc4ccccc4C(c4ccccc4)(OO2)O3)cc1 (stereo not drawn) [Compound 11, 4,5-dihydro-1,4-diphenyl-1,4-epoxy-1H-2,3-benzodioxepin] | 91.4 | – | –
